Values of other authors as cited in publication PMC13109691 (Environmental and Molecular Mutagenesis, 2026).

Conditions: source not stated

Lipophilicity (logP): 3.79
SMILES: COc1ccc(C(=O)c2ccccc2)c(O)c1 [Oxybenzone]
